Measured values as given in patent US20240344059A1, “Gene Editing of Regulatory Elements” (Vertex Pharmaceuticals Incorporated, priority 2021, published 2024).

Tests used:
[1] = test system: E-boxes within intron 1 of human DMPK gene; assay: PCR, TapeStation and ICE verification of E-box excision (SaCas9/SluCas9 RNP); assay type: cell-based; conditions: DM1 patient myoblasts, 3 μM DNA-PKi Compound 6 for 48 h, TapeStation and ICE analysis
From the text: Primary healthy myoblasts (P01431-18F) and DM1 patient myoblasts (03001-32F) were obtained from Cook MyoSite. Myoblasts were maintained in myoblast growth medium consisted of Myotonic™ Basal Medium (Cook Myosite, MB-2222) and Myotonic™ Growth Supplement (Cook Myosite, MS-3333) and purified with EasySep Human CD56 Positive Selection Kit II (StemCell Tech, 17855) following the manufacturer's instruction. Purified myoblasts were then banked in liquid nitrogen tank until 3-4 days before nucleofection.
The RNPs were assembled with either recombinant SaCas9 protein (Aldevron) or SluCas9 (Aldevron) and chemically modified sgRNAs (Synthego) at a ratio of 1:3 (protein:sgRNA). Specifically, SaCas9 RNPs complexes were first assembled for individual sgRNAs with 20 pmol of SaCas9 protein and 60 pmol of sgRNAs in 5 μL of P5 Nucleofector Solution. SluCas9 RNPs complexes were first assembled for individual sgRNAs with 15 pmol of SluCas9 and 45 pmol of sgRNAs in 5 μL of P5 Nucleofector Solution. […]
Genomic DNA of DM1 myoblasts was isolated with the Kingfisher Flex purification system (Thermal Fisher) in 96-well format following the manufacturer's instruction. […] The PCR products were analyzed by gel electrophoresis. […]

[2] = test system: CUG foci in myonuclei of DM1 patient myotubes; assay: FISH staining of CUG RNA foci (SaCas9/SluCas9 sgRNA pairs); assay type: cell-based, human; conditions: DM1 patient myotubes, DNA-PKi group versus DMSO group
Protocol: Primary myotubes were fixed for 15 min with 4% paraformaldehyde (PFA) and washed five times with 1×PBS for 5 min each at room temperature. Before staining, cells were permeabilized with 0.5% triton X-100 in 1×PBS for 5 min at room temperature, and then washed with 30% formamide and 2× saline-sodium citrate (SSC) mixture for 10 min at room temperature. Cells were then stained with 1 ng/μL of Cy3-PNA(CAG)5 probe (PNA Bio, F5001) diluted in 30% formamide, 2×SSC, 2 μg/mL BSA, 66 μg/mL yeast tRNA, and 2 mM vanadyl complex for 15 min at 80° C. Following probe staining, cells were then washed in 30% formamide and 2×SSC mixture for 30 min at 60° C., then washed in 30% formamide and 2×SSC mixture for 30 min at 55° C., and then washed in 1×SSC solution for 10 min at room temperature, and finally washed in 1×PBS for 10 min at room temperature. For staining of myotube nuclei, cells were stained with anti-Myogenin antibody diluted in 1% bovine serum albumin (BSA) for overnight at 4° C. and washed twice with 1×PBS for 5 min each at room temperature. Cells were then incubated with the secondary antibody goat anti-rabbit Alexa 488 (Thermo Fisher, A32731) diluted in 1% BSA for 1 hr at room temperature and washed twice with 1×PBS for 5 min each at room temperature. Next, cells were stained with Hoechst solution (Thermo Fisher, H3569) at 0.1 mg/ml for 5 min and washed once with 1×PBS for 5 min. PBS was aspirated and fresh 100 μl of fresh PBS was added to each well. High-throughput acquisition of images was completed with the ImageXpress Micro Confocal High-Content Imaging System (Molecular Devices). RNA foci quantifications were accomplished with a customized analysis module of the MetaXpress program (Molecular Devices).
Each sgRNA pair consisting of one upstream sgRNA and one downstream sgRNA were assembled with recombinant SaCas9 or SluCas9 protein, respectively, into a ribonucleoprotein (RNP) complex and delivered into primary DM1 patient myoblasts with Amaxa 4D-Nucleofector. Post nucleofection, myoblasts were divided into 6 groups and were treated with DMSO (Groups 1-3) or 3 μM of DNA-dependent Protein Kinase Inhibitor (DNA-PKi) Compound 6 (Group 4-6) for 48 hrs. DNA-PKi was used to boost the excision efficiency and to better understand the contribution of E-boxes to DMPK transcription. 72 hrs post nucleofection, myoblasts from Groups 1 and 4 were collected for genomic DNA isolation, whereas the rest of the groups were subjected to myogenic differentiation to form myotubes. The myotubes were collected on Day 15 post nucleofection (Day 12 post differentiation) for mRNA isolation (Group 2 and 5) and RNA foci staining (Groups 3 and 6) (FIG. 9).

Cc1ccnc(N[C@H]2CC[C@@H](Oc3cc(N4CCOCC4)cc4nonc34)CC2)n1 [Compound 6]
expected excision, DNA-PKi group compared to the vehicle group [1]: more apparent expected excision
further average foci number reduction in myonuclei by DNA-PKi [2]: no further average foci number reduction
